The target of one data set is T1, α4β3δ GABAA receptor (Homo sapiens, UniProt P28472+P48169).
T1 construct: expressed in transfected cells; host or cells: CHO cells (transient expression)
Description: Whole-cell electrophysiology of GABA-evoked currents, CHO cells. The data set is classed as cell-based. The protocol:
The α1β2γ2 and α4β3δ GABAA receptor subtypes, representing synaptic and extrasynaptic subunit compositions in neurons, are widely utilized for screening new NAS drugs. In this study, a preliminary SAR study was conducted on a series of Zuranolone analogs using the LogP values predicted by ADMETlab3.0 software, recombinant human GABAA receptor cell lines, and in vitro liver microsome stability assays. The results are summarized in Table 1, Table 2, and Table 3, respectively.
The effects of Zuranolone and synthetic analogs on GABA-evoked currents were assessed in LTK cells stably expressing α1β2γ2 GABAA receptor subunits (n = 3) or CHO cells transiently expressing α4β3δ receptors (n = 3). Whole-cell mode recordings were conducted using the HEKA EPC-10 amplifier and analyzed with PatchMaster software (version 2x90, HEKA Elektronik, Lambrecht, Germany). High-throughput whole-cell recordings were performed using the Q-Patch method from Sophion. Test substances were dissolved in DMSO (dimethyl sulfoxide) to prepare 10 mmol/L stock solutions, then diluted with perfusion bath solution to concentrations ranging from 0.01 to 10 μmol/L. In this experiment, the effects of Zuranolone and its synthetic analogs on GABA-induced currents were examined in the presence of a submaximal agonist concentration at 1 μmol/L GABA (EC20). Cells were pre-incubated with increasing doses of test substances for 30 s, followed by 2 s of GABA stimulation, and currents were recorded. The maximum efficacy (Emax) of the GABAA receptor is expressed with the current induced by 1 μmol/L GABA taken as 100%, and the percentage after treatment with the test compound is calculated. The EC50 values are determined by fitting the three concentration–response curves recorded from three cells.

A short description of data set [1]: Liver microsome metabolic stability (RLM). The note with it: for half-life at 1 μmol/L: read-out: RLM T1/2. The data set is classed as in vitro ADME, rat. Set-up: microsomal CLint at 1 μmol/L: unit not given here. On the procedure: (§1) We quantified S1–S15 and Zuranolone using a UPLC-MS/MS (Agilent 1290 Infinity II UHPLC (Agilent Technologies, Santa Clara, CA, USA) coupled with a QTRAP 5500 MS/MS (ESI source) (SCIEX, Redwood City, CA, USA for MS/MS). The method assessed the content level of S9 and Zuranolone in microsome metabolism and in rat brain tissue and plasma. An ACQUITY UPLC Peptide BEH C18 column (Waters; 50 × 2.1 mm, 1.7 μm; 60 °C; Waters Corporation, Milford, MA, USA) was used with a mobile phase of 0.02% propionic acid in water (A) and acetonitrile (B). The gradient elution of the mobile phase B is carried out as follows: it is 10% from 0 to 0.5 min, 90% from 0.8 to 2.5 min, and 10% from 2.8 to 3.5 min, with a flow rate of 0.40 mL/min. Quantitative analysis was performed on a QTRAP 5500 MS (SCIEX, Redwood City, CA, USA) in positive ionization mode with MRM (multiple reaction monitoring), using progesterone-d9 as the internal standard. MRM transitions and parameters were optimized for each analyte, with collision energies of 25 V (S1–S15), 23 V (Zuranolone), and 30 V (IS), and declustering potentials of 80 V (S1–S15), 90 V (Zuranolone), and 180 V (IS). Other conditions were as follows: curtain gas 10 psi, collision gas ‘medium’, ion spray voltage 5500 V, temperature 500 °C, and ionization source gases 1 and 2 at 50 psi.
To evaluate the metabolic stability of compounds S1–S15 and Zuranolone in RLM and HLM, we designed the following in vitro liver microsome metabolism assay protocol. In a 1.5 mL centrifuge tube, sequentially add 173 μL of PBS (0.1 M, pH 7.4), 5 μL of liver microsomes (20 mg/mL), and 2 μL of the test compound (100 μmol/L). After thorough mixing, pre-incubate at 37 °C for 10 min. Subsequently, add 20 μL of NADPH to initiate the metabolism, with a parallel control without NADPH, to validate the background signal. Samples were collected at 0, 5, 10, 20, 30, and 60 min post-reaction initiation. At each designated time point, we quenched the reaction with ice-cold acetonitrile (600 μL). After centrifuging the mixture, we analyzed the supernatant using UPLC-MS/MS. For data analysis, the compound concentration at 0 min was set as 100%, with concentrations at subsequent time points expressed as residual percentages relative to the initial value, and the in vitro half-life (T1/2) and intrinsic clearance (CLint) were calculated.

Data set [2] in a line: Brain distribution in rats. The data set is classed as in vivo, rat. The note with it: i.g. 24.4 μmol/kg. On the procedure:
as §1
Zuranolone was solubilized in 5% DMSO with solutol HS 15 in saline. S9 was solubilized in 10% DMSA with 30% SBECD (Zibo Qianhui Biological Technology Co., Ltd., Zibo, China) in saline. After fasting for 12 h, rats (n = 6 per group) were administered Zuranolone and S9 intragastrically (i.g.) at a dose of 24.4 μmol/kg, and intravenously (i.v.) at 6.1 μmol/kg. Blood samples (200 μL) were collected into 1.5 mL tubes containing heparin at 15 min, 30 min, 1, 2, 3, 4, 6, 8, 12, 24, 48, and 96 h after i.g. or at 5, 15, 30 min, and 1, 2, 3, 4, 6, 8, 12, 24, 48, 96 h after i.v. Plasma was separated by centrifugation for 5 min (8000 rpm, 4 °C) and stored at −80 °C immediately.

Several values for one entry are separate records, joined by “and”; a condition that tells them apart may be missing. Identical values can stand only once. Entries after “also recorded” stand apart in the source; their conditions may differ. Like-named read-outs stand apart in the source and are kept apart here.

The source of these data is PMC12073189, “Synthesis and Evaluation of a Novel Zuranolone Analog with High GABAA Receptor PAM Activity and Excellent Pharmacokinetic Profiles” (Molecules, 2025).

T1 sequence (P48169 36-554): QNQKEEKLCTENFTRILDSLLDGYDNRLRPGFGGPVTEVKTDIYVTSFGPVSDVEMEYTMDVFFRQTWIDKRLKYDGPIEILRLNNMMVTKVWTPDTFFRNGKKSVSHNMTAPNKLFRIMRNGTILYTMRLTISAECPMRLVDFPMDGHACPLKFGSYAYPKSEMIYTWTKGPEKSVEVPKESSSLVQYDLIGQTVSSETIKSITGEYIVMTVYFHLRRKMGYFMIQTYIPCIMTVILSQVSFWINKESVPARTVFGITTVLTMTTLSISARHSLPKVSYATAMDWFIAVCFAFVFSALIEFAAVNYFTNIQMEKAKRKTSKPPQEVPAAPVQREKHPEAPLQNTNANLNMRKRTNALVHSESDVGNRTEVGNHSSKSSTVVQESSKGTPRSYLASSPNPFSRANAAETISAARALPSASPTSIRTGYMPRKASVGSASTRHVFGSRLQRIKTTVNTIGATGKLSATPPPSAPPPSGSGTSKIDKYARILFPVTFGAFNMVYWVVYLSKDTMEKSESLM
T1 sequence (P28472 26-473): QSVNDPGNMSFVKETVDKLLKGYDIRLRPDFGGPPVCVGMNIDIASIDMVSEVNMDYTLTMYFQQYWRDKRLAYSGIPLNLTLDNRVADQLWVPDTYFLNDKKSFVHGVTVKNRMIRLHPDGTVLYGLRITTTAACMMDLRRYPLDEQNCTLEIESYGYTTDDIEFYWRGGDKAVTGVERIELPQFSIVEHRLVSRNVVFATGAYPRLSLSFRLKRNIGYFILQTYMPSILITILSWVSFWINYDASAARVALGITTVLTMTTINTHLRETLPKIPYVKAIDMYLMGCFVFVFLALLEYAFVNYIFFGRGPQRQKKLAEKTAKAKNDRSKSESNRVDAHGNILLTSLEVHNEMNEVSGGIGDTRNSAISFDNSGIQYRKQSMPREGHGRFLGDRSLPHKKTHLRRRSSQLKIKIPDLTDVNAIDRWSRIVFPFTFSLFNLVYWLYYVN
T1 sequence (O14764 25-452 partner): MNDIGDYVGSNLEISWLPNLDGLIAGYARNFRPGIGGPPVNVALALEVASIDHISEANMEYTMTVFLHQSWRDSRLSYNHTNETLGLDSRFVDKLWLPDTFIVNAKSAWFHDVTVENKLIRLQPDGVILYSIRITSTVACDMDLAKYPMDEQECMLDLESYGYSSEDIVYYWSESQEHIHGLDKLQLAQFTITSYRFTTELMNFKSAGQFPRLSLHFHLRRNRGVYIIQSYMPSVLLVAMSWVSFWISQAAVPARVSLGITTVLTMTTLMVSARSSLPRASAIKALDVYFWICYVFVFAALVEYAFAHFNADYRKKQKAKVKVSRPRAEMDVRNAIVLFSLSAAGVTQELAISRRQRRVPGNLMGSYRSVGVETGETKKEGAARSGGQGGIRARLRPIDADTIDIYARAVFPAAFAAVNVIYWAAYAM

In turn, `C[C@@]1(O)CC[C@H]2[C@H](CC[C@@H]3[C@@H]2CC[C@]2(C)[C@@H](C(=O)Cn4cc(C#N)cn4)CC[C@@H]32)C1` [Zuranolone] had an EC50 on α4β3δ GABAA receptor of 0.093 ± 0.01 µM. Besides, the half-life at 1 μmol/L in data set [1] (pH 7.4, rat liver microsomes) was determined as 0.8 h. For the same compound, in data set [2], the “AUCBrain 0–t” value was 9549 nmol·h/kg and 9549 ± 2529 nmol·h/kg. In addition, the Brain concentration was 3103 nmol/kg and 3103 ± 795 nmol/kg in data set [2] (0.5 h); 2220 ± 574 nmol/kg in data set [2] (2 h); 193 nmol/kg and 193 ± 56 nmol/kg in data set [2] (6 h); “below the quantification limit (BQL); also recorded: BQL ^b” in data set [2] (24 h).

As to `C[C@@]1(O)CC[C@H]2[C@H](CC[C@@H]3[C@@H]2CC[C@]2(C)[C@@H](C(=O)Cn4cnn(-c5ccnc(OCC(F)(F)F)c5)c4=O)CC[C@@H]32)C1` [S9], at α4β3δ GABAA receptor (CHO cells, 1 μmol/L GABA (EC20), n = 3, read-out: α4β3δ EC50), the EC50 was determined as 0.034 ± 0.01 µM. In addition, on α4β3δ GABAA receptor (CHO cells, current induced by 1 μmol/L GABA = 100%, n = 3), the Emax turned out to be 967 ± 118%. Further, at α4β3δ GABAA receptor (extrasynaptic GABAA receptors), the “efficacy as % of that of Zuranolone” value came to 71% and the “potency as % of that of Zuranolone” value is 270%. Besides, in data set [1] (RLM), the “fold longer T1/2 than Zuranolone” value is reported as 4 fold and the “fold lower CLint than Zuranolone” value was determined as 6.5 fold. Besides, the half-life at 1 μmol/L in data set [1] (pH 7.4, rat liver microsomes) came to 3.1 h. Further, the microsomal CLint at 1 μmol/L in data set [1] (pH 7.4, rat liver microsomes, read-out: RLM intrinsic clearance (CLint)) was 8000. In data set [2], the “AUCBrain 0–t” value is 30,969 nmol/kg·h and 30,969 ± 8450 nmol/kg·h; the “F AUCBrain 0–t S9/Zuranolone (relative brain bioavailability)” value turned out to be 324%. The Brain concentration in data set [2] (0.5 h) is 189 nmol/kg and 189 ± 30 nmol/kg. The Brain concentration in data set [2] (2 h) worked out at 1895 ± 593 nmol/kg. The Brain concentration in data set [2] (6 h) was 2132 nmol/kg and 2132 ± 683 nmol/kg. The Brain concentration in data set [2] (24 h) was 175 nmol/kg and 175 ± 35 nmol/kg.
